Patent publication US20200231562A1, “NOVEL MACROLIDE ANTIBIOTICS” (HELMHOLTZ-ZENTRUM FÜR INFEKTIONSFORSCHUNG GMBH, priority 2014, published 2020)
Converted amounts (≈) assume the structure as drawn. Where two headings read alike, the source gives them in different places.

What was measured:
Assay type in all cases: cell-based
[1] = tested on: Candida albicans ATCC14053; experiment: Agar diffusion assay; details: 50 μL of 0.5 mg in 1 mL methanol per 7 mm hole; n.a. = no activity observed
Experimental: (§1) Antimicrobial activities of the gulmirecins were determined in a primary screen against Bacillus subtilis ATCC 6633, Staphylococcus aureus SG511, Staphylococcus auricularis DSM 20609, Mycobacterium vaccae IMET 10670, Pseudomonas aeruginosa K799/61, Escherichia coli SG458, Sporobolomyces salmonicolor SBUG 549, Candida albicans ATCC14053 and Penicillium notatum JP 36. To this end, holes with 7 mm diameter were aseptically punched in the respective agar medium. Subsequently, the agar plates were inoculated with the test organisms. 0.5 mg of every test compound was dissolved in 1 mL of methanol, and 50 μL of this solution was transferred to a single hole. Ciprofloxacin and amphotericin B served as positive controls. After evaporation of the solvent, the agar plates were incubated depending on the growth conditions of the test organisms. […] The test results are shown in Table 6 below, wherein the given values represent the diameters of the respective inhibition zone in the agar diffusion assay.

[2] = tested on: Penicillium notatum JP 36; experiment: Agar diffusion assay; details: 50 μL of 0.5 mg in 1 mL methanol per 7 mm hole; n.a. = no activity observed
Experimental: as §1

[3] = tested on: Sporobolomyces salmonicolor SBUG 549; experiment: Agar diffusion assay; details: 50 μL of 0.5 mg in 1 mL methanol per 7 mm hole; n.a. = no activity observed
Experimental: as §1

[4] = tested on: Bacillus subtilis ATCC 6633; experiment: Agar diffusion assay; details: ATCC6633, 50 μL of 0.5 mg in 1 mL methanol per 7 mm hole, n.a. = no activity observed, read-out: diameter of inhibition zone
Experimental: as §1

Escherichia coli SG458 = experiment: Agar diffusion assay; details: 50 μL of 0.5 mg in 1 mL methanol per 7 mm hole, n.a. = no activity observed, read-out: diameter of inhibition zone
Experimental: as §1

[5] = tested on: Mycobacterium vaccae IMET 10670; experiment: Agar diffusion assay; details: Mycolicibacterium vaccae, IMET10670; 50 μL of 0.5 mg in 1 mL methanol per 7 mm hole; n.a. = no activity observed; read-out: diameter of inhibition zone
Experimental: as §1

[6] = tested on: Pseudomonas aeruginosa K799/61; experiment: Agar diffusion assay; details: 50 μL of 0.5 mg in 1 mL methanol per 7 mm hole, n.a. = no activity observed, read-out: diameter of inhibition zone
Experimental: as §1

[7] = tested on: Staphylococcus aureus SG511; experiment: Agar diffusion assay; details: 50 μL of 0.5 mg in 1 mL methanol per 7 mm hole, n.a. = no activity observed, read-out: diameter of inhibition zone
Experimental: as §1

[8] = tested on: Staphylococcus auricularis DSM 20609; experiment: Agar diffusion assay; details: DSM20609, 50 μL of 0.5 mg in 1 mL methanol per 7 mm hole, n.a. = no activity observed, read-out: diameter of inhibition zone
Experimental: as §1

[9] = tested on: methicillin-resistant S. aureus (MRSA); experiment: Bouillon dilution assay (MIC90); details: Staphylococcus aureus, tryptic soy broth, 37° C., 16 h
Experimental: Before incubation, 3 was added in decreasing concentrations ([…] to 12.5 μg/ml). After incubation, the OD600 was measured. The experiment was run in triplicate. Ciprofloxacin was used as a positive control.

Bacillus subtilis DSM 10 = experiment: MIC by microbroth dilution; details: Bacillus subtilis, DSM10, 16 h, 30° C., n.i. = no inhibition up to 67 μg/ml, read-out: MIC
Experimental: (§2) Bacterial strains. Bacterial wildtype strains used in susceptibility assays were either part of HZI's strain collection or purchased from the German Collection of Microorgansims and Cell Cultures (Deutsche Sammlung von Mikroorganismen und Zellkulturen, DSMZ).
(§3) Minimum inhibitory concentration (MIC) was determined by microbroth dilution. In brief, overnight cultures of bacteria (EBS medium) were diluted to OD600 0.01. Disciformycin A (1) or B (2) dissolved in DMSO was added directly to the cultures in 96-well plates (Sarstedt, flat bottom) in duplicate and the compound was tested in serial dilution. […] After 16 h incubation at 900 rpm and 30° C. on a microplate shaker (Titramax, Heidolph) absorbance at 600 nm was measured using a microplate reader (POLARstar Omega, BMG Labtech). MIC values were determined by sigmoidal curve fitting.

[10] = tested on: Chromobacterium violaceum DSM 30191; experiment: MIC by microbroth dilution; details: 16 h, 30° C., n.i. = no inhibition up to 67 μg/ml
Experimental: as §2, §3

[11] = tested on: Escherichia coli DSM 1116; experiment: MIC by microbroth dilution; details: 16 h, 30° C., n.i. = no inhibition up to 67 μg/ml
Experimental: as §2, §3

[12] = tested on: Micrococcus luteus DSM 20030; experiment: MIC by microbroth dilution; details: 16 h, 30° C., n.i. = no inhibition up to 67 μg/ml
Experimental: as §2, §3

[13] = tested on: Mycobacterium diemhoferi DSM 43524; experiment: MIC by microbroth dilution; details: Mycobacterium, DSM43524, 16 h, 30° C., n.i. = no inhibition up to 67 μg/ml, read-out: MIC
Experimental: as §2, §3

[14] = tested on: Mycobacterium sp. DSM 43270; experiment: MIC by microbroth dilution; details: 16 h, 30° C., n.i. = no inhibition up to 67 μg/ml
Experimental: as §2, §3

[15] = tested on: Nocardioides simplex DSM 20130; experiment: MIC by microbroth dilution; details: Pimelobacter simplex, DSM20130, 16 h, 30° C., n.i. = no inhibition up to 67 μg/ml, read-out: MIC
Experimental: as §2, §3

[16] = tested on: Paenibacillus polymyxa DSM 36; experiment: MIC by microbroth dilution; details: Paenibacillus polymyxa, DSM36, 16 h, 30° C., n.i. = no inhibition up to 67 μg/ml, read-out: MIC
Experimental: as §2, §3

[17] = tested on: Pseudomonas aeruginosa DSM 50071; experiment: MIC by microbroth dilution; details: 16 h, 30° C., n.i. = no inhibition up to 67 μg/ml
Experimental: as §2, §3

[18] = tested on: Staphylococcus aureus (MRSA) DSM-11822; experiment: MIC by microbroth dilution; details: microbroth dilution, 16 h, 30° C., n.i. = no inhibition up to 67 μg/ml
Experimental: as §2, §3

[19] = tested on: Staphylococcus aureus DSM 346; experiment: MIC by microbroth dilution; details: Staphylococcus aureus, DSM346, 16 h, 30° C., n.i. = no inhibition up to 67 μg/ml, read-out: MIC
Experimental: as §2, §3

[20] = tested on: Staphylococcus aureus Mu50 (MRSA/VRSA) ATCC 700699; experiment: MIC by microbroth dilution; details: 16 h, 30° C., n.i. = no inhibition up to 67 μg/ml
Experimental: as §2, §3

[21] = tested on: Staphylococcus aureus N315 (MRSA); experiment: MIC by microbroth dilution; details: 16 h, 30° C., n.i. = no inhibition up to 67 μg/ml
Experimental: as §2, §3

[22] = tested on: Staphylococcus aureus Newman; experiment: MIC by microbroth dilution; details: 16 h, 30° C., n.i. = no inhibition up to 67 μg/ml
Experimental: as §2, §3

[23] = tested on: Staphylococcus camosus DSM 20501; experiment: MIC by microbroth dilution; details: 30° C., n.i. = no inhibition up to 67 μg/ml
Experimental: as §2, §3

[24] = tested on: Chinese hamster ovary CHO-K1 cells (ACC-110); experiment: Cytotoxicity (MTT) assay, antiproliferative activity; details: Cricetulus griseus, 120 h, CHO-K1, 5 d incubation
Experimental: (§4) Half maximal inhibitory concentrations (IC50) in μg/ml of disciformycin A (1) and disciformycin B (2) for inhibiting the proliferative activity of human HCT-116 colon carcinoma cells, mouse fibroblast cells L929, and Chinese hamster ovary CHO-K1 cells were determined. Cells were seeded at 6×10^3 cells per well of 96-well plates (Corning CellBind®) in complete medium (180 μl) and directly treated with disciformycin dissolved in DMSO in serial dilution. The compound was tested in duplicate, as well as the internal solvent control. After 5 d incubation, 5 mg/ml MTT in PBS (20 μL) was added per well and it was further incubated for 2 h at 37° C. The medium was then discarded and cells were washed with PBS (100 μl) before adding 2-propanol/10N HCl (250:1, v/v; 100 μl) in order to dissolve formazan granules. The absorbance at 570 nm was measured using a microplate reader (EL808, Bio-Tek Instruments Inc.). The amount of formazan, i.e. relative absorption, is thereby proportional to the number of actively proliferating cells.

[25] = tested on: HCT-116 colon carcinoma cells (ACC-581); experiment: as above; details: Homo sapiens, 120 h, HCT-116, 5 d incubation
Experimental: as §4

[26] = tested on: Mouse fibroblast cells L929 (ACC-2); experiment: as above; details: 120 h, L929, 5 d incubation
Experimental: as §4

[27] = tested on: S. aureus N315 wildtype (WT); experiment: Susceptibility (MIC) of S. aureus N315 wildtype; details: Staphylococcus aureus
[28] = tested on: S. aureus N315 mutant Mt50DscA.1; experiment: Susceptibility (MIC) of Disciformycin A-resistant mutant; details: Staphylococcus aureus
[29] = tested on: S. aureus N315 mutant Mt50DscA.2; experiment: as above; details: Staphylococcus aureus
[30] = tested on: S. aureus N315 mutant Mt50DscA.3; experiment: as above; details: Staphylococcus aureus
[31] = tested on: S. aureus N315 mutant Mt50DscA.4; experiment: as above; details: Staphylococcus aureus
[32] = tested on: S. aureus N315 mutant Mt50DscA.5; experiment: as above; details: Staphylococcus aureus
[33] = tested on: S. aureus N315 mutant Mt50DscA.6; experiment: as above; details: Staphylococcus aureus
[34] = tested on: S. aureus N315 mutant Mt50DscA.8; experiment: as above; details: Staphylococcus aureus
[35] = tested on: S. aureus N315 Mt50DscA.9; experiment: as above; details: Staphylococcus aureus
[36] = tested on: S. aureus N315 mutant Mt50DscA.10; experiment: as above; details: Staphylococcus aureus
[37] = tested on: S. aureus N315 mutant Mt50DscA.11; experiment: as above; details: Staphylococcus aureus
[38] = tested on: S. aureus Newman in PMA-differentiated human THP-1 cell line (macrophages); experiment: Intra-macrophage activity
Text: The PMA-differentiated human THP-1 cell line (macrophages) was used as cellular host for infection with S. aureus Newman at an MOI (multiplicity of infection) of 10. […] Intracellular bacteria were recovered and serial dilutions were streaked out on CASO-Agar for cfu counting. The reference drug rifampicin reduced the number of intracellular bacteria by ca. 4 logs (at 8×MIC).

[39] = Staphylococcus aureus, read-out: MIC

C[C@@H]1[C@H](O)[C@@H](C)/C=C/C=C/C=C/C=C/C=C/C=C/C=C/[C@H](O[C@@H]2O[C@H](C)[C@@H](O)[C@H](N)[C@@H]2O)C[C@@H]2O[C@](O)(C[C@@H](O)C[C@@H](O)[C@H](O)CC[C@@H](O)C[C@@H](O)CC(=O)O[C@H]1C)C[C@H](O)[C@H]2C(=O)O [Amphotericin B]
diameter of inhibition zone [1]: 22 mm
diameter of inhibition zone [2]: 18 mm
diameter of inhibition zone [3]: 19 mm

O=C(O)c1cn(C2CC2)c2cc(N3CCNCC3)c(F)cc2c1=O [Ciprofloxacin, reference compound]
zone of inhibition at 25 µg/hole [4]: 30 mm
zone of inhibition at 25 µg/hole (Escherichia coli SG458): 34 mm
zone of inhibition at 25 µg/hole [5]: 24 mm
zone of inhibition at 25 µg/hole [6]: 38 mm
zone of inhibition at 25 µg/hole [7]: 19 mm
zone of inhibition at 25 µg/hole [8]: 20 mm
MIC90 [9]: 75.4 µM (≈ 25 µg/mL)

C/C=C(/C)[C@H]1C/C=C(\C)[C@@H](O[C@H]2O[C@H](CO)[C@@H](O)[C@@H]2O)[C@H](OC(=O)CC(C)C)C(=O)/C=C/[C@H](C)C(=O)O1 [Compound 2, disciformycin B]
MIC (Bacillus subtilis DSM 10): 0.83 µg/mL (≈ 1.58 µM)
MIC [10]: n.i.
MIC [11]: n.i.
MIC [12]: n.i.
MIC [13]: 33.3 µg/mL (≈ 63.5 µM)
MIC [14]: n.i.
MIC [15]: 16.6 µg/mL (≈ 31.6 µM)
MIC [16]: 16.6 µg/mL (≈ 31.6 µM)
MIC [17]: n.i.
MIC [18, 39]: 0.6 µg/mL (≈ 1.14 µM)
MIC [18]: 0.6 µg/mL (≈ 1.14 µM)
MIC [19]: 3.3 µg/mL (≈ 6.29 µM)
MIC [20]: 0.6 µg/mL (≈ 1.14 µM)
MIC [20, 39]: 0.6 µg/mL (≈ 1.14 µM)
MIC [21]: 1.2 µg/mL (≈ 2.29 µM)
MIC ([21]; Staphylococcus aureus, MRSA, read-out: MIC): 1.2 µg/mL (≈ 2.29 µM)
MIC [22]: 1.2 µg/mL (≈ 2.29 µM)
MIC ([22]; Staphylococcus aureus, NEWMAN, read-out: MIC): 1.2 µg/mL (≈ 2.29 µM)
MIC ([23]; 16 h): 2.4 µg/mL (≈ 4.57 µM)
MIC ([23]; Staphylococcus, DSM20501, 16 h, read-out: MIC): 2.4 µg/mL (≈ 4.57 µM)
IC50 [24]: > 10 µg/mL
IC50 [25]: > 10 µg/mL
IC50 [26]: > 10 µg/mL
MIC [27]: 1 µg/mL (≈ 1.91 µM)
MIC [28]: > 64 µg/mL
MIC [29]: > 64 µg/mL
MIC [30]: > 64 µg/mL
MIC [31]: > 64 µg/mL
MIC [32]: 16 µg/mL (≈ 30.5 µM)
MIC [33]: > 64 µg/mL
MIC [34]: > 64 µg/mL
MIC [35]: > 64 µg/mL
MIC [36]: > 64 µg/mL
MIC [37]: 32 µg/mL (≈ 61 µM)
reduction of the number of intracellular bacteria ([38]; 18 h, MOI 10, cfu counting, tested at 1×, 4× and 8×MIC): 3 logs
cytotoxicity towards THP-1 host cells ([38]; 18 h treatment of infected macrophages): without causing any apparent cytotoxicity
